According to patent publication US20170189376A1, “BUTYROYLOXYMETHYL DIETHYL PHOSPHATE COMPOUNDS AND USES THEREOF” (MOR RESEARCH APPLICATIONS LTD., priority 2016, published 2017):
Read-outs that look alike come from different tables or passages of the source.

Legend:
[1] = tested on: HDAC1; assay: Western blot of HDAC1 protein expression in MF/SS cell lines; assay type: cell-based, human; conditions: MyLa and Hut78, SAHA 10 μM or AN-7 300 μM
[2] = tested on: p-KAP1, γH2AX in Hut78 cells; assay: Western blot of p-KAP1 and γH2AX, Hut78 cells; assay type: cell-based, homo sapiens; conditions: 0.5 mM AN-7 2 h, 0.5 μM Dox 1 h, or AN-7 1 h followed with Dox 1 h
Procedure: (§1) Cell fraction—3×10^6cells were suspended in 100 μl hypotonic buffer (HEPES 10 mM, KCl 5 mM, MgCl2 1.5 mM, DTT 1 mM, NP-40 1%), incubated for 15 min in ice, centrifuged and the supernatant fraction was subjected to western blot of pKAP1 and actin. The sediment was washed once with hypotonic buffer followed by suspension in 100 μl of hypertonic buffer (HEPES 10 mM, NaCl 500 mM, MgCl2 1.5 mM, DTT 1 mM, NP-40 1%), incubated for 15 min in ice, centrifuged, supernatant was removed and the sediment was boiled, vortexed for 10 min at 95° C. with sample buffer ×3 for 3 times and subjected to western blot of γH2AX.
(§2) Whole cells extract—Cells were suspended in lysis buffer (Tris-HCl 50 mM, NaCl 150 mM, NP-40 0.5%), incubated for lh on ice, centrifuged and the supernatant was collected. Protease and Phosphatase inhibitors were added to all buffers at a 1:100 dilutions. […] Bands were visualized by Odyssey Infrared Imaging System and the bands intense were normalized to actin.
(§3) Next, cells were fractionated and fraction lysate were subjected to western blot of phosphorylated KAP1 (p-KAP1), γH2AX and actin.

[3] = tested on: Sezary syndrome Peripheral blood lymphocytes SPBL; assay: MTT-based viability assay, Sezary PBL (SPBL); conditions: for IC50: Sezary PBL
Procedure: (§5) Peripheral blood was diluted 1:3 in sterile phosphate-buffered saline (PBS). Lymphoprep was added in the same blood volume with a Pasteur pipette, and the sample was centrifuged. PBL were collected from the white median interphase, rinsed twice with PBS, and suspended in RPMI medium with 10 mM HEPES to 2×10^6 cells/mL.
(§6) MyLa cells (10^4), Hut78 cells (5×10^3), SPBL and NPBL (10^5) were seeded in triplicate in 96-well plates. The PBL were activated with PHA 40 μg/10^6 cell for 24 h before the experiment. […] The cells were then placed in a humidified incubator for 72 h. […] The MTT reagent was added to a final concentration of 0.5 mg/mL, and the cells were incubated for an additional 4 h. Thereafter, 0.1N HCl in isopropanol was added, and cell viability was determined using an ELISA reader (PowerWaveX, BioTek, Winooski, Vt., USA) at a 570 nm wavelength with background subtraction at 630-690 nM.
(§7) Viability and apoptosis curves were based on the averages of at least 3 independent experiments. The standard error (SE) was calculated for each group as follows: SE=standard deviation/√n, where n is number of values in the group. […] Significant differences in selectivity among groups were analyzed by comparing the IC50 values using two-tailed unpaired t-test using Excel or by comparing the differential effects for all the dose response titrations using ANOVA with repeated measures.
(§8) NPBL were treated at same molar ratio as SPBL.

[4] = tested on: NPBL; assay: MTT-based viability assay, normal PBL (NPBL); conditions: for IC50: Normal PBL
Procedure: as §5, §6, §7, §8

[5] = tested on: Hut78 cells; assay type: cell-based, homo sapiens; conditions: trypan blue; for IC50: column group printed 'SAHA'
[6] = tested on: p-KAP1, γH2AX in MyLa cells; assay: Western blot of p-KAP1 and γH2AX, MyLa cells; assay type: cell-based, human; conditions: 1 mM AN-7 2 h, 1 μM Dox 1 h, or AN-7 1 h followed with Dox 1 h
Procedure: as §1, §2, §3

[7] = tested on: SPBL; assay: FACS annexin V/PI apoptosis ex vivo, PBL of SS patients; assay type: cell-based, human; conditions: PBL from 2 SS patients, SAHA 4 μM or AN-7 200 μM, 48 h
From the text: The cells were then stained with annexin V and PI and analysed by FACS.

[8] = tested on: caspase 3, PARP, P21 and Bax in MF/SS cell lines; assay: Western blot of pro-apoptotic proteins in MF/SS cell lines; assay type: cell-based, human; conditions: MyLa and Hut78, SAHA 10 μM or AN-7 300 μM
From the text: However, there was a stronger signal in response to SAHA.

[9] = tested on: U2OS GFP-reporter cells; assay: HR activity assay, U2OS GFP-reporter cells; assay type: cell-based; conditions: 1 mM AN-7 for 48 h
Procedure: U2OS cells with the linearized HRsub reporter (Puget et al. DNA Repair 4 (2005) 149-161) were transfected with: SceI-expression vector pCBASce; pCBA vector without Sce-I; and GFP control vector, each one separately with FuGENE 6 transfection reagent (Promega). 24 h later 2×10̂5 cells/ml were seeded in 35 mm plates and 6 h later were treated with 1 mM AN-7 for 48 hr. Cells were washed with PBS then harvested with Trypsin solution, neutralized with PBS+10% FBS, centrifuged in 1200 rpm for 10 min, suspended with PBS+10% FBS and GFP-positive cells were quantified by flow cytometry analysis. Cells excitation was done with 488nm laser; the reading of FL1 values was done in 530 nm. Percent of cells with repaired DSB induced by Sce-I via HR are presented as percent of GFP positive cells which are calculated as follow: (%GFP of cells expressing Sce-I pCBASce)−(%GFP of cells expressing empty pCBASce)/(%GFP of cells expressing GFP control vector).
The role of AN-7 in suppressing directly the repair of DSBs, was verified. To this end, one of the machinery for repairing DSBs, the HR repair machinery, was tested. […] The U2OS-GFP cells were transfected with I-SceI plasmid for 24 hours, treated then with AN-7 for another 48 h and then analyzed for GFP expression in FACS analysis. […]

[10] = tested on: Hut78 cells; assay: FACS analysis with annexin V and PI staining (apoptosis), Hut78 cells
Procedure: (§9) The cells (2.5×10^6 cells/mL) were washed in PBS and binding buffer and were resuspended in binding buffer, and of fluorescein isothiocyanate-conjugated annexin V (5 μL) was added to a 100 μL cell suspension for 10-15 min. Incubation was performed at room temperature under light-protected conditions. The cells were then washed in binding buffer and were resuspended in the binding buffer and propidium iodide (PI) (5 μL) was added. The samples were analyzed by flow cytometry (FACS Calibur 4.1.6, Becton Dickinson): fluorescein-labeled annexin V at a 530 nm wavelength, and PI at a 585 nm wavelength. The percentage of cells was calculated by their distribution in a fluorescence dot plot generated with FCS Express 4 software (De Novo Software, Los Angeles, Calif., USA). Early (annexin V-positive) and late (annexin V+PI-positive) apoptotic cells were summed to yield the total number of apoptotic cells.

[11] = tested on: Hut78 cells; assay: MTT-based viability assay, Hut78 cells
Procedure: as §6, §7

[12] = tested on: MyLa cells; assay: MTT-based viability assay, MyLa cells
Procedure: as §6, §7

[13] = tested on: MyLa cells; assay: cells; assay type: cell-based, human; conditions: trypan blue, column group printed 'AN-7', MyLa
[14] = tested on: NBS1, Rad51, Mre11, DNA-PK, Ku70 in Hut78 cells; assay: Western blot of DSB repair proteins, Hut78 cells; assay type: cell-based, homo sapiens; conditions: Hut78, 18 and 24 h post treatment
Procedure: as §2
(§4) To address whether AN-7 interfere in DSBs repair by regulating the expression of DSBs repair proteins, Immunoblot was applied for those proteins. MyLa and Hut78 cells were treated as previously described and subjected to western blot of DSBs repair proteins.

[15] = tested on: NBS1, Rad51, Mre11, DNA-PK, Ku70 in MyLa cells; assay: Western blot of DSB repair proteins, MyLa cells; assay type: cell-based, human; conditions: 24 and 48 h post treatment
Procedure: as §2, §4

[16] = tested on: MyLa cells; assay: FACS analysis with annexin V and PI staining (apoptosis), MyLa cells
Procedure: as §9

[17] = tested on: Acetylated H3; assay: Western blot of acetylated H3 in nuclear lysate of MF/SS cell lines; conditions: MyLa and Hut78, SAHA 10 μM or AN-7 300 μM
Procedure: Cells (5×10^6) were suspended in 300 μL of cytoplasmic buffer (HEPES 10 mM, KCl 10 mM, EDTA 1 mM, EGTA 1 mM, DTT 1 mM). After 20 min of incubation on ice, the mixture was passed 5 times through a 25-G syringe and then centrifuged briefly to obtain the cytoplasmic supernatant.
The nuclear pellet was suspended in 40-60 μL of nuclear buffer (cytoplasmic buffer+10% glycerol), incubated with shaking at 4° C. for 15 min, and centrifuged. The supernatant was collected as a nuclear fraction.
Cell extracts were separated by SDS-polyacrylamide gel electrophoresis (SDS-PAGE), transferred to a nitrocellulose membrane, and subjected to immunoblot with primary and secondary antibodies, as listed in table 1.

[18] = read-out: IC50 single treatment (HDACI), MTT 72 h, Table 4
[19] = long exposure 24 h, read-out: IC50 Long exposure

CCCC(=O)OCOP(=O)(OCC)OCC [AN-7, Butyroyloxymethyl diethyl phosphate]
HDAC1 expression level [1]: downregulated | induction and persistence of p-KAP1 and γH2AX [2]: did not affect the expression of p-KAP1 and γH2AX | Selectivity index (SI) ([3]; SI=IC50 NPBL/IC50 Sezary PBL): 3.56 | selectivity of induced death vs NPBL ([3]; SPBL vs NPBL, by IC50 values): selective death | IC50 ([3]; MTT, 72 h): 128 µM | lethality of high doses to SPBL ([3]; high doses, MTT 72 h): more lethal to SPBL than high doses of SAHA | IC50 [3, 18]: 128 ± 5.2 µM | IC50 ([4]; MTT, 72 h): 200 ± 2.8 µM | NPBL survival at high doses ([4]; high doses lethal to Hut78 and MyLa cells): 50% | IC50 [4, 18]: 191 ± 26.1 µM | IC50 short exposure/IC50 long exposure [5]: 1.3 | IC50 ([5]; 4 h then washout and 20 h, read-out: IC50 Short exposure): 88 ± 4.6 µM | IC50 [5, 19]: 67 ± 2.5 µM | induction and clearance of p-KAP1 [6]: did not affect the expression of p-KAP1 and γH2AX | induction and clearance of γH2AX [6]: did not affect the expression of p-KAP1 and γH2AX | apoptosis induction in SPBL ex vivo [7]: directed more SPBL cells into apoptotic death than SAHA | expression of pro-apoptotic proteins (western blot) [8]: cleavage of caspase 3 and poly ADP-ribose polymerase (PARP) and the production of P21 and Bax | proportion of cells expressing GFP (frequency of HR repair of I-SceI-induced DSBs) [9]: significantly reduce | apoptosis after short exposure compared to long exposure (fold less) ([10]; Hut78, annexin V + PI): no significant difference | apoptosis ([10]; Hut78, SAHA 10 μM or AN-7 300 μM): about 60% | IC50 ([11]; Hut78 cells, MTT, 72 h): 59 ± 4.3 µM | selectivity vs NPBL by dose-response titration ([11]; Hut78 vs NPBL, ANOVA with repeated measures): significantly selective | Selectivity index (SI) ([11]; SI=IC50 NPBL/IC50 Hut78): 3.4 | IC50 ([11]; read-out: IC50 single treatment (HDACI), Hut78, MTT 72 h, Table 4): 59 ± 4.3 µM | IC50 ([12]; MyLa cells, MTT, 72 h): 120 ± 5.3 µM | selectivity vs NPBL by dose-response titration ([12]; MyLa vs NPBL, ANOVA with repeated measures): significantly selective | Selectivity index (SI) ([12]; SI=IC50 NPBL/IC50 MyLa): 1.7 | IC50 ([12]; read-out: IC50 single treatment (HDACI), MyLa, MTT 72 h, Table 4): 81.7 ± 4.4 µM | IC50 ([13]; 4 h then washout and 44 h, read-out: IC50 Short exposure): 141 ± 9.8 µM | IC50 [13, 19]: 159 ± 34.8 µM | expression of NBS1 and DNA-PK [14]: did not affect the expression of DSB repair proteins | expression of NBS1, Mre11, Rad51 and DNA-PK [15]: did not affect the expression of DSB repair proteins | apoptosis ([16]; SAHA 10 μM or AN-7 300 μM): about 60% | apoptosis after short exposure compared to long exposure (fold less) ([16]; annexin V + PI): no significant difference | expression of acetylated H3 [17]: induced
